The source of these data is the RepoRT retention time repository (doi:10.1021/acs.analchem.2c02893).

Molecules are shown by their SMILES.

This data set can be described thus: RP, Thermo Scientific Acclaim RSLC 120 C18, 100 × 2.1 mm, 2.2 µm, 30 °C, 0.2 mL/min, estimated dead time 1.1 min; A: 90% water + 10% methanol + 0.01% formic acid + 5 mM ammonium formate, pH 3.61; B: methanol + 0.01% formic acid + 5 mM ammonium formate, pH 3.61; gradient (min/%B) 0/1 1/1 2/39 13/99.9 15/99.9 15.1/1 20.1/1. The settings on record: stereoisomer not certain.

On to `CCOC(=O)C1=C(C)NC(C)=C(C(=O)OC)C1c1cccc(Cl)c1Cl` (stereo not given) [Felodipine], for which the LC retention time was 11 min.
As to `CSC1=NC(C)(c2ccccc2)C(=O)N1Nc1ccccc1` (stereo not given) [Fenamidone], the LC retention time was 9.22 min.
Turning to `CCOP(=O)(NC(C)C)Oc1ccc(S(C)(=O)=O)c(C)c1` (stereo not given) [Fenamiphos - sulfone], the LC retention time is 7.21 min.
Take `CCOP(=O)(NC(C)C)Oc1ccc(SC)c(C)c1` (stereo not given) [Fenamiphos]: the LC retention time was 10.4 min.
The value for `OC(c1ccc(Cl)cc1)(c1cncnc1)c1ccccc1Cl` (stereo not given) [Fenarimol] was 10.1 min; that for `CC(C)(C)c1ccc(CCOc2ncnc3ccccc23)cc1` [Fenazaquin] was 13.7 min.
Regarding `N#CC(CCc1ccc(Cl)cc1)(Cn1cncn1)c1ccccc1` (stereo not given) [Fenbuconazole], the LC retention time was 10.4 min.
On to `CC(C)([CH2][Sn+]([CH2]C(C)(C)c1ccccc1)[CH2]C(C)(C)c1ccccc1)c1ccccc1` [Fenbutatin Oxide Fragm 519], for which the LC retention time is 14.5 min.
The value for `CCNC1C2CCC(C2)C1c1ccccc1` (stereo not given) [Fencamfamine] was 6.08 min.
The value for `COP(=S)(OC)Oc1cc(Cl)c(Cl)cc1Cl` [Fenclofos.Ronnel] was 12.5 min.
On to `CC(NCCC(c1ccccc1)c1ccccc1)c1ccccc1` (stereo not given) [Fendiline], for which the LC retention time was 8.54 min.
For the molecule `NCC(O)c1cccc(O)c1` (stereo not given) [Fenefrine-Nor], the LC retention time was 1.81 min.
The value for `CC(Cc1ccccc1)NCCn1cnc2c1c(=O)n(C)c(=O)n2C` (stereo not given) [Fenethylline] was 5.06 min; that for `CC(N)Cc1cccc(C(F)(F)F)c1` (stereo not given) [Fenfluramine-Nor] was 5.91 min.
Turning to `CCN(N=O)C(C)Cc1cccc(C(F)(F)F)c1` (stereo not given) [Fenfluramine-n-Nitroso], the LC retention time is 9.38 min.
On to `Cc1occc1C(=O)Nc1ccccc1` [Fenfuram], for which the LC retention time was 7.59 min.
`CC1(C(=O)Nc2ccc(O)c(Cl)c2Cl)CCCCC1` [Fenhexamide]: the LC retention time is 10.1 min.
In the case of `COP(=S)(OC)Oc1ccc([N+](=O)[O-])c(C)c1` [Fenitrothion], the LC retention time is 9.92 min.
For `CCC(C)c1ccccc1OC(=O)NC` (stereo not given) [Fenobucarb], the LC retention time was 9.05 min.
As for `CC(C)OC(=O)C(C)(C)Oc1ccc(C(=O)c2ccc(Cl)cc2)cc1` [Fenofibrate], the figure is 12.6 min.
Consider `CC(C)(Oc1ccc(C(=O)c2ccc(Cl)cc2)cc1)C(=O)O` [Fenofibric acid], for which the LC retention time was 9.68 min.
Turning to `COC(=O)C(C)Oc1cc(Cl)c(Cl)cc1Cl` (stereo not given) [Fenoprop-methylester  (Silvex-methyester)], the LC retention time was 11.5 min.
Turning to `CC(Cc1ccc(O)cc1)NCC(O)c1cc(O)cc(O)c1` (stereo not given) [Fenoterol], the LC retention time is 3.61 min.
Take `CN(C)C(=O)SCCCCOc1ccccc1` [Fenothiocarb]: the LC retention time was 10.7 min.
With `CC(Oc1ccc(Oc2nc3ccc(Cl)cc3o2)cc1)C(=O)O` (stereo not given) [Fenoxaprop-P], the LC retention time is 9.83 min.
On to `CCOC(=O)NCCOc1ccc(Oc2ccccc2)cc1` [Fenoxycarb], for which the LC retention time was 10.6 min.
As for `N#Cc1c[nH]cc1-c1cccc(Cl)c1Cl` [Fenpiclonil], the LC retention time was 8.91 min.
Take `NC(=O)C(CCN1CCCCC1)(c1ccccc1)c1ccccc1` [Fenpipramide]: the LC retention time was 5.19 min.
The value for `c1ccc(C(CCN2CCCCC2)c2ccccc2)cc1` [Fenpiprane] was 6.82 min; that for `CC1(C)C(C(=O)OC(C#N)c2cccc(Oc3ccccc3)c2)C1(C)C` (stereo not given) [Fenpropathrin] was 12.9 min; that for `CC(Cc1ccc(C(C)(C)C)cc1)CN1CCCCC1` (stereo not given) [Fenpropidin] was 8.62 min.
Consider `CC(Cc1ccc(C(C)(C)C)cc1)CN1CC(C)OC(C)C1` (stereo not given) [Fenpropimorph], for which the LC retention time was 10.7 min.
Consider `CC(Cc1ccccc1)NCCC#N` (stereo not given) [Fenproporex (NARL)], for which the LC retention time is 4.14 min.
On to `Cc1nn(C)c(Oc2ccccc2)c1C=NOCc1ccc(C(=O)OC(C)(C)C)cc1` [Fenpyroximate], for which the LC retention time was 13.2 min.
The value for `O=S(=O)(Oc1ccc(Cl)cc1)c1ccccc1` [Fenson] was 10.1 min; that for `CCOP(=S)(OCC)Oc1ccc(S(C)(=O)=O)cc1` [Fensulfothion-sulfon] was 8.48 min.
With `CCOP(=S)(OCC)Oc1ccc(S(C)=O)cc1` (stereo not given) [Fensulfothion], the LC retention time was 8.27 min.
Take `COP(=O)(OC)Oc1ccc(SC)c(C)c1` [Fenthion-oxon]: the LC retention time is 8.82 min.
The value for `COP(=S)(OC)Oc1ccc(S(C)(=O)=O)c(C)c1` [Fenthion-sulfon] was 7.57 min.
As for `COP(=S)(OC)Oc1ccc(S(C)=O)c(C)c1` (stereo not given) [Fenthion-sulfoxide], the LC retention time is 7.28 min.
As to `COP(=S)(OC)Oc1ccc(SC)c(C)c1` [Fenthion], the LC retention time was 11 min.
As to `Clc1ccc(C(Cn2ccnc2)OCc2ccc(Sc3ccccc3)cc2)c(Cl)c1` (stereo not given) [Fenticonazole], the LC retention time is 13.4 min.
Take `c1cc[c]([Sn+]([c]2ccccc2)[c]2ccccc2)cc1` [Fentin (triphenylstannylium) (1+)]: the LC retention time was 10.4 min.
As for `CN(C)C(=O)Nc1ccccc1` [Fenuron], the figure is 5.12 min; as for `CC(C)(C(=O)O)c1ccc(C(O)CCCN2CCC(C(O)(c3ccccc3)c3ccccc3)CC2)cc1` (stereo not given) [Fexofenadine], 7.68 min.
On to `CC(C)(C)NC(=O)C1CCC2C3CCC4NC(=O)C=CC4(C)C3CCC12C` (stereo not given) [Finasteride], for which the LC retention time is 9.9 min.
On to `N#Cc1nn(-c2c(Cl)cc(C(F)(F)F)cc2Cl)c(N)c1C(F)(F)F` [Fipronil-desulfinyl], for which the LC retention time was 10.4 min.
Turning to `N#Cc1nn(-c2c(Cl)cc(C(F)(F)F)cc2Cl)c(N)c1SC(F)(F)F` [Fipronil-sulfide], the LC retention time is 10.8 min.
On to `N#Cc1nn(-c2c(Cl)cc(C(F)(F)F)cc2Cl)c(N)c1S(=O)(=O)C(F)(F)F` [Fipronil-sulfone], for which the LC retention time is 11 min.
With `N#Cc1nn(-c2c(Cl)cc(C(F)(F)F)cc2Cl)c(N)c1S(=O)C(F)(F)F` (stereo not given) [Fipronil], the LC retention time was 10.5 min.
For the molecule `CC(C)OC(=O)C(C)N(C(=O)c1ccccc1)c1ccc(F)c(Cl)c1` (stereo not given) [Flamprop-isopropyl], the LC retention time is 10.8 min.
In the case of `CC(C(=O)O)N(C(=O)c1ccccc1)c1ccc(F)c(Cl)c1` (stereo not given) [Flamprop], the LC retention time is 8.6 min.
As for `COc1cc(OC)nc(NC(=O)NS(=O)(=O)c2ncccc2C(F)(F)F)n1` [Flazasulfuron], the figure is 8.56 min; as for `O=C(NCC1CCCCN1)c1cc(OCC(F)(F)F)ccc1OCC(F)(F)F` (stereo not given) [Flecainide], 6.44 min; as for `O=c1[nH]c2ccccc2n1CCN1CCN(c2cccc(C(F)(F)F)c2)CC1` [Flibanserin], 9.99 min.
